According to doi:10.1101/2021.04.08.439011v1 (biorxiv, 2021):

Tests used:
Settings in all cases: 0.1 µM; binder
[1] = molecular target: LIMK2 (Homo sapiens, UniProt P53671)
[2] = molecular target: CDC2L5 (Homo sapiens, UniProt Q14004)
[3] = molecular target: EGFR(G719S) (Homo sapiens, UniProt P00533, G719S)
[4] = molecular target: DYRK1A (Homo sapiens, UniProt Q13627)
[5] = molecular target: p38-alpha (Homo sapiens, UniProt Q16539)
[6] = molecular target: PIM3 (Homo sapiens, UniProt Q86V86)
[7] = molecular target: AKT3 (Homo sapiens, UniProt Q9Y243)
Chain of AKT3 (Q9Y243 whole entry): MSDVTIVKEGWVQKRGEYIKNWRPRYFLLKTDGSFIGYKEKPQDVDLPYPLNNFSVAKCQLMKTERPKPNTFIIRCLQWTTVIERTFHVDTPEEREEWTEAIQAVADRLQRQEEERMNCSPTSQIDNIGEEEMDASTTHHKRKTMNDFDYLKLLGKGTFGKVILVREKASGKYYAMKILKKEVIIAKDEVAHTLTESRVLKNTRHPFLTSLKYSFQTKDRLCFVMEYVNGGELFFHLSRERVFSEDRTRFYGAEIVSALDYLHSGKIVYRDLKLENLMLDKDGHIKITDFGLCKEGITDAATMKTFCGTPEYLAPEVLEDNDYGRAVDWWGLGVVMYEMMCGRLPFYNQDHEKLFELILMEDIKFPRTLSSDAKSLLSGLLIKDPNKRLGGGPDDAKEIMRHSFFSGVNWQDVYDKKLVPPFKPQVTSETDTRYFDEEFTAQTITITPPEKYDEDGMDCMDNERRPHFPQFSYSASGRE

[8] = molecular target: CSNK1A1L (Homo sapiens, UniProt Q8N752)
Chain of CSNK1A1L (Q8N752 whole entry): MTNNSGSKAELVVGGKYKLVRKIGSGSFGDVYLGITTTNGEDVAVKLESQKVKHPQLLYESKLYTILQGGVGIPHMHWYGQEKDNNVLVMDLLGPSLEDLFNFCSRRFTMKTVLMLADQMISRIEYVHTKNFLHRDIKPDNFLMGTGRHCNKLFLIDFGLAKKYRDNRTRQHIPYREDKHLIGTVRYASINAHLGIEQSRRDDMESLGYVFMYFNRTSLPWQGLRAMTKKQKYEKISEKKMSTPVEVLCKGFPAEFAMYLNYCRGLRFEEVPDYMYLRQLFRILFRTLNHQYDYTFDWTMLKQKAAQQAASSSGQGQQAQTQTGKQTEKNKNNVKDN

[9] = molecular target: CLK2 (Homo sapiens, UniProt P49760)
Chain of CLK2 (P49760 whole entry): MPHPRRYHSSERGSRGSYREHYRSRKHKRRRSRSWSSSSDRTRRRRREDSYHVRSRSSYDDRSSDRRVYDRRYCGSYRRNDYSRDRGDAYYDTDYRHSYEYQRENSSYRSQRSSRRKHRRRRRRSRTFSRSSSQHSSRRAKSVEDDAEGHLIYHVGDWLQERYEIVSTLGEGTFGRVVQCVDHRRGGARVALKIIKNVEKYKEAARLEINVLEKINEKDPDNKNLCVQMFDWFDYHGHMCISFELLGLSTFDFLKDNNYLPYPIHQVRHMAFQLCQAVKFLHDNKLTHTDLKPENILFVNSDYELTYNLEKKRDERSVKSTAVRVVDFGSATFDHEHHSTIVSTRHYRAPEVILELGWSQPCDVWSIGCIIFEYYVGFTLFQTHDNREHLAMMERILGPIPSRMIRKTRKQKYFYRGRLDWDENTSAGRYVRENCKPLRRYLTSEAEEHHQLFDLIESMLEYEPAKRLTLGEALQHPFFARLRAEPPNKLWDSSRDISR

[10] = molecular target: TLK2 (Homo sapiens, UniProt Q86UE8)
[11] = molecular target: SRMS (Homo sapiens, UniProt Q9H3Y6)
[12] = molecular target: KIT(L576P) (Homo sapiens, UniProt P10721, L576P)
[13] = molecular target: PRKG2 (Homo sapiens, UniProt Q13237)
[14] = molecular target: NEK4 (Homo sapiens, UniProt P51957)
Chain of NEK4 (P51957 whole entry): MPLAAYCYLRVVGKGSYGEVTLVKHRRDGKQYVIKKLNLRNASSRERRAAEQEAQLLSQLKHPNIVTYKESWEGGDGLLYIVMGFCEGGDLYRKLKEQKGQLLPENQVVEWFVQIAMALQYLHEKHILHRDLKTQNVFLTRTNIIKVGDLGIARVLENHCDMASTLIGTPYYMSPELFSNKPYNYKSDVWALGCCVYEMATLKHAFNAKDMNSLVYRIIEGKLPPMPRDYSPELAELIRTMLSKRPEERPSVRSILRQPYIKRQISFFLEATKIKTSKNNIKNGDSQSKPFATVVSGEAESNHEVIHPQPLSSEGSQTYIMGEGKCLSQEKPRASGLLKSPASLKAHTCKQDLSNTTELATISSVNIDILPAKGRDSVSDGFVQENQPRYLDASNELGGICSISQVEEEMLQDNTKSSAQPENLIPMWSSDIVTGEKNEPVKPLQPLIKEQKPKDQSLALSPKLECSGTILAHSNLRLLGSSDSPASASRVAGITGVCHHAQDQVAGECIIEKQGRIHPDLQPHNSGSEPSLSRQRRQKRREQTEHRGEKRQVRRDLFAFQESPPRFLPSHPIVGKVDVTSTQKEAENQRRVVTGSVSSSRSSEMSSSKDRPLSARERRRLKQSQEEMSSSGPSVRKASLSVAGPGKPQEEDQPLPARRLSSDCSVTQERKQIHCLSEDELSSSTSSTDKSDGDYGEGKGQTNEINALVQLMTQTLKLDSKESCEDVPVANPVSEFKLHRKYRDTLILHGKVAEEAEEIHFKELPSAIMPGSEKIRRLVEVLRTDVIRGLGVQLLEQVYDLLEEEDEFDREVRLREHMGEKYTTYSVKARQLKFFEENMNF

[15] = molecular target: CSNK1D (Homo sapiens, UniProt P48730)
[16] = molecular target: ACVR2B (Homo sapiens, UniProt Q13705)
Chain of ACVR2B (Q13705 whole entry): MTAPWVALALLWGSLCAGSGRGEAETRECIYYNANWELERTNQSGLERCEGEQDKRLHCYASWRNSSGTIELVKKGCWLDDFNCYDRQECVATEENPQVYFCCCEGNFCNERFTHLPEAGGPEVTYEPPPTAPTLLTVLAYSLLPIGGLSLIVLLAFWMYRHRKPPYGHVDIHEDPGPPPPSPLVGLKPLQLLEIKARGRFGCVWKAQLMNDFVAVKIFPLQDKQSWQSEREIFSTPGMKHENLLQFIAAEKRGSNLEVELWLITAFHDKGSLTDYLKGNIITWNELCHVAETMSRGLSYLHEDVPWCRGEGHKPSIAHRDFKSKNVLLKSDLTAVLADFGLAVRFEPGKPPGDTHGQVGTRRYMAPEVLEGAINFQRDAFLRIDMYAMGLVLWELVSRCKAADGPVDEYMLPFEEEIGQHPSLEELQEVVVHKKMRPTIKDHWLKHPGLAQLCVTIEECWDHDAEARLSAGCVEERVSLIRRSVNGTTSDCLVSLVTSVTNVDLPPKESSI

[17] = molecular target: ERK4 (Homo sapiens, UniProt P31152)
[18] = molecular target: MST4 (Homo sapiens, UniProt Q9P289)
[19] = molecular target: TAOK1 (Homo sapiens, UniProt Q7L7X3)
[20] = molecular target: SNRK (Homo sapiens, UniProt Q9NRH2)
[21] = molecular target: FGFR4 (Homo sapiens, UniProt P22455)
[22] = molecular target: MST3 (Homo sapiens, UniProt Q9Y6E0)
[23] = molecular target: ACVR1B (Homo sapiens, UniProt P36896)
Chain of ACVR1B (P36896 whole entry): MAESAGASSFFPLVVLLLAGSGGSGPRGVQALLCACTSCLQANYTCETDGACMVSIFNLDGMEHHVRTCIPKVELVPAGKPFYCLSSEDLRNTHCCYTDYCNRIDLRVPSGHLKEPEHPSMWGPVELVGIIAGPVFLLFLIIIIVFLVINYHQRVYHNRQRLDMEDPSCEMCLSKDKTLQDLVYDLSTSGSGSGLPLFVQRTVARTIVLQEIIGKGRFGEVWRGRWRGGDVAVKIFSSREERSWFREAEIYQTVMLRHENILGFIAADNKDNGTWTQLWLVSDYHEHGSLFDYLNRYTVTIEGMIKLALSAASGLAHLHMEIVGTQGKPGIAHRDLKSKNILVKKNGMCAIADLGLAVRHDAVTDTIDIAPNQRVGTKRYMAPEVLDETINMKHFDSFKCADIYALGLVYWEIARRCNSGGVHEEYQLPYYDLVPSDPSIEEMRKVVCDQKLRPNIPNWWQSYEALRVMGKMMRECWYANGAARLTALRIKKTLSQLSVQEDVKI

[24] = molecular target: FLT3(K663Q) (Homo sapiens, UniProt P36888, K663Q)
[25] = molecular target: PKN2 (Homo sapiens, UniProt Q16513)
[26] = molecular target: PIK3CA(I800L) (Homo sapiens, UniProt P42336, I800L)
[27] = molecular target: CLK1 (Homo sapiens, UniProt P49759)
[28] = molecular target: IGF1R (Homo sapiens, UniProt P08069)
[29] = molecular target: PIK4CB (Homo sapiens, UniProt Q9UBF8)
[30] = molecular target: PRKD2 (Homo sapiens, UniProt Q9BZL6)
Chain of PRKD2 (Q9BZL6 whole entry): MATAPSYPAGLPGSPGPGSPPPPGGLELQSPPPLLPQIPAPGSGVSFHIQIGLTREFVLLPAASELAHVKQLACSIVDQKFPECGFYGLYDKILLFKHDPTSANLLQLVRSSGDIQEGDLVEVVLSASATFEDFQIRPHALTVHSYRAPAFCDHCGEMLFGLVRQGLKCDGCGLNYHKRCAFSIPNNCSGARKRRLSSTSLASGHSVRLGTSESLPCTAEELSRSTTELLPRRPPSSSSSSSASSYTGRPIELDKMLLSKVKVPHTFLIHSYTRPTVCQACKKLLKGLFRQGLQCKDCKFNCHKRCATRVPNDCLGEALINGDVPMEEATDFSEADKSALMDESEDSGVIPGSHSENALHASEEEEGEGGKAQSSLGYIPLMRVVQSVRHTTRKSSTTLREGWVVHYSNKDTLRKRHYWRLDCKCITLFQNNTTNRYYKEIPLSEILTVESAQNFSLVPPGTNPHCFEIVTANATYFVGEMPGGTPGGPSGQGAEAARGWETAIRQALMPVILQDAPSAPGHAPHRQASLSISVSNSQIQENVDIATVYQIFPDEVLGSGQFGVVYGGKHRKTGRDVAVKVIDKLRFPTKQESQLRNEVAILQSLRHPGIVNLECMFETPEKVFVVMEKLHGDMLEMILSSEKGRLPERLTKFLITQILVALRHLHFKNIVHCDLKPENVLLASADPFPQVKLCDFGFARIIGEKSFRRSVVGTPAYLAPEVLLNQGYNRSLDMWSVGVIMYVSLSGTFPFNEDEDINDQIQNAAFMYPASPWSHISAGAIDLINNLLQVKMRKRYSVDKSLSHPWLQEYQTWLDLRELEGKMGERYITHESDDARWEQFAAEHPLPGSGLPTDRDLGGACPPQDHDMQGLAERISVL

[31] = molecular target: NEK11 (Homo sapiens, UniProt Q8NG66)
Chain of NEK11 (Q8NG66 whole entry): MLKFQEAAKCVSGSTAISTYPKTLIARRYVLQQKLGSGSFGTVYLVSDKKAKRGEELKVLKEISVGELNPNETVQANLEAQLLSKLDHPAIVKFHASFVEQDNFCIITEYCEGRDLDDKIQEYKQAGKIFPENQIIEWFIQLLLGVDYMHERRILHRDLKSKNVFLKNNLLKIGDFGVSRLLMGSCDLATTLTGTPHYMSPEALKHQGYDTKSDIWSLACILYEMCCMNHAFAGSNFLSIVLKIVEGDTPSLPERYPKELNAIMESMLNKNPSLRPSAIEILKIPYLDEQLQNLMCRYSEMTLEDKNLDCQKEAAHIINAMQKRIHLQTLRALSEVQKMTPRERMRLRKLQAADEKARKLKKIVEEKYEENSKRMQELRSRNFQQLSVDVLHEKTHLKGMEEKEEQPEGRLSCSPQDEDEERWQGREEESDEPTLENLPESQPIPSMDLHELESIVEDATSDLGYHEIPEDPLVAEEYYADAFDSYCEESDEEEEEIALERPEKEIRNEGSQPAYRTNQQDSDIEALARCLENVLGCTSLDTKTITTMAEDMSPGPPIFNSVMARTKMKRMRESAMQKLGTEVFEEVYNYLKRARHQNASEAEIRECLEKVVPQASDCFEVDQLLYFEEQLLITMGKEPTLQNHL

CNc1ncc2cc(-c3ccc(-c4cccc(C)n4)cc3Cl)c(=O)n(C[C@H]3OC[C@H](N)CO3)c2n1 [compound 6, G-5555]
Percent Control [1]: 100% | Percent Control [2]: 79% | Percent Control [3]: 100% | Percent Control [4]: 100% | Percent Control [5]: 100% | Percent Control [6]: 100% | Percent Control [7]: 95% | Percent Control [8]: 100% | Percent Control [9]: 100% | Percent Control [10]: 100% | Percent Control [11]: 99% | Percent Control [12]: 100% | Percent Control [13]: 86% | Percent Control [14]: 100% | Percent Control [15]: 90% | Percent Control [16]: 100% | Percent Control [17]: 100% | Percent Control [18]: 0.5% | Percent Control [19]: 100% | Percent Control [20]: 84% | Percent Control [21]: 100% | Percent Control [22]: 15% | Percent Control [23]: 100% | Percent Control [24]: 100% | Percent Control [25]: 100% | Percent Control [26]: 87% | Percent Control [27]: 100% | Percent Control [28]: 100% | Percent Control [29]: 97% | Percent Control [30]: 92% | Percent Control [31]: 100%
